Results on 21 molecules are retold here after publication PMC10969092, “Characterization of Lysophospholipase D Activity in Mammalian Cell Membranes” (Cells, 2024).

Like-named read-outs stand apart in the source and are kept apart here.

Assay [1] relates to lyso-PLD. The assay can be described thus: In vitro membrane lyso-PLD assay (B-lyso-PC substrate, B-LPA product). Type of assay: biochemical, rat.
Assay [2] concerns lyso-PLD. Type of assay: biochemical, human. The note with it: PC-3 membranes; for EC50: single-site competition fit, read-out: EC50 for inhibiting B-lyso-PC conversion to B-LPA; for Ability to compete with B-lyso-PC for utilization by lyso-PLD: up to 4.6 mM.
In assay [3] the target is T1, PLD (Rattus norvegicus, UniProt P70498).
T1 construct: PC12K membranes were incubated with either B-PC (for PLD assay) or commercial B-lyso-PC (for lyso-PLD assay); endogenous in cells; host or cells: PC12K and A7r5 cell membranes (100,000 x g pellet)
The assay can be described thus: In vitro fluorescent PLD assay in cell membranes (B-PC substrate with butanol, B-PBt product). The class given is biochemical.

The test system of assay [4] is PLD. Details: method as in PMID 9655185. The note with it: cited from earlier work.
Assay [5] concerns PLD. The experiment in a line: PLD activity in intact cells. Type of assay: cell-based. Conditions: multiple cell types, varying experimental conditions.
The subject of another assay is PLC from Bacillus cereus. Conditions: cited from earlier work.
Another assay concerns cabbage PLD. Conditions: cited from earlier work.

T1 sequence (P70498 whole entry): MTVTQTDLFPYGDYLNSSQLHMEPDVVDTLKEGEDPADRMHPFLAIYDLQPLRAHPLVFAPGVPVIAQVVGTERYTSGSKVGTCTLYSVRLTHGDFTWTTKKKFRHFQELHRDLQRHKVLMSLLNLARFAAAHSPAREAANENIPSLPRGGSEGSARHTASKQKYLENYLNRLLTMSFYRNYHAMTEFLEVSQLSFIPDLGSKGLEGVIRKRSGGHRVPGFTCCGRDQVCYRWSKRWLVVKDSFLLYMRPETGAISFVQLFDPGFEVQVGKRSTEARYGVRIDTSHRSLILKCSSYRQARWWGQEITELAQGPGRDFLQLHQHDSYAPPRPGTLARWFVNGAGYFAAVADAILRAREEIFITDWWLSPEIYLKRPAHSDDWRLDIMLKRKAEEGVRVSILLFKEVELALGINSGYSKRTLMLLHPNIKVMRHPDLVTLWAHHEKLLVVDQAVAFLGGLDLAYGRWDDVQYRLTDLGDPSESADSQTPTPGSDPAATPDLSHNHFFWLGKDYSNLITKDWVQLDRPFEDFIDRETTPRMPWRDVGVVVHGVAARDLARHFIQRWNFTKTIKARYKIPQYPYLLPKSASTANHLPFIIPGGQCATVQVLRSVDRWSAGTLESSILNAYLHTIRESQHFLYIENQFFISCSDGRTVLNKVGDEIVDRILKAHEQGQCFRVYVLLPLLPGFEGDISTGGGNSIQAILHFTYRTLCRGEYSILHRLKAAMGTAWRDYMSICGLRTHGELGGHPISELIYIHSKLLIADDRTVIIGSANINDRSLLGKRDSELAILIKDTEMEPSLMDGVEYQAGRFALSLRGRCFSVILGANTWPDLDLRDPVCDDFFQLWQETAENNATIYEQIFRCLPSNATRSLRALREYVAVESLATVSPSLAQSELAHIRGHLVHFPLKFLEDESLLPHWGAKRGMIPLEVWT

Take `Nc1ncnc2c1ncn2[C@@H]1O[C@H](COP(=O)(O)OP(=O)(O)OP(=O)(O)O)[C@@H](O)[C@H]1O` [ATP]: the “Stimulation of lyso-PLD activity” value in the assay on lyso-PLD [1] was “did not stimulate lyso-PLD activity”.

On to `CCCCCCCCCCCCCCCCOC[C@@H](O)COP(=O)([O-])OCC[N+](C)(C)C` [C16-lyso-PAF], for which the EC50 (commonly the concentration giving half of the maximal effect) in the assay on lyso-PLD [2] was about 400 µM.

On to `CCCCCCCCCCCCCCCC(=O)OC[C@@H](O)COP(=O)([O-])OCC[N+](C)(C)C` [C16-lyso-PC], for which the EC50 with lyso-PLD [2] is about 300 µM.

Take `CCCCCCCCCCCCCCCCCCOC[C@@H](O)COP(=O)([O-])OCC[N+](C)(C)C` [C18-lyso-PAF]: the EC50 with lyso-PLD [2] was about 400 µM.

In the case of `CCCCCCCCCCCCCCCCCC(=O)OC[C@@H](O)COP(=O)([O-])OCC[N+](C)(C)C` [C18-lyso-PC], the EC50 in the assay with lyso-PLD [2] was about 300 µM.

With `CCCCCCCC/C=C\CCCCCCCC(=O)OC[C@@H](O)COP(=O)([O-])OCC[N+](C)(C)C` [C18:1-lyso-PC], the EC50 in the assay with lyso-PLD [2] is about 300 µM.

With `O=S(=O)([O-])[O-].[Cu+2]` [copper sulfate], on PLD [3], the “Inhibition of PLD in screening assays” value is reported as “did not inhibit PLD”.

Consider `C[S+](C)[O-]` [dimethylsulfoxide], for which, in the assay with lyso-PLD [1] (8%, cell line not stated), the “Effect on lyso-PLD activity” value was “relatively insensitive”. For the same molecule, the “Effect on PLD activity” value at PLD [3] (8%, cell line not stated) is recorded as “completely inhibited”.

Consider `[Cl-].[Cl-].[Mg+2]` [magnesium chloride], for which the “Stimulation of lyso-PLD activity” value in the assay on lyso-PLD [1] was “did not stimulate lyso-PLD activity”. The “Inhibition of PLD in screening assays” value on PLD [3] is “did not inhibit PLD”.

`O=S(=O)([O-])[O-].[Mg+2]` [magnesium sulfate]: the “Inhibition of PLD in screening assays” value at PLD [3] was “did not inhibit PLD”.

For the molecule `O=[N+]([O-])c1ccc(OP(=O)(O)O)cc1` [para-nitrophenol phosphate], the “Inhibition of PLD in screening assays” value at PLD [3] is “did not inhibit PLD”.

For the molecule `O=C([O-])C(=O)[O-].[K+].[K+]` [potassium oxalate], the “Inhibition of PLD in screening assays” value at PLD [3] (concentrations of 1–10 mM) was “did not inhibit PLD”.

For `[Na+].[Na+].[O]=[Mo](=[O])([O-])[O-]` [sodium molybdate], the “Inhibition of PLD in screening assays” value on PLD [3] (concentrations of 1–10 mM) was “did not inhibit PLD”.

Take `O=C([O-])C(=O)[O-].[Na+].[Na+]` [sodium oxalate]: the “Inhibition of PLD in screening assays” value at PLD [3] (concentrations of 1–10 mM) was “did not inhibit PLD”.

Take `O=S(=O)([O-])[O-].[Zn+2]` [zinc sulfate]: the “Inhibition of PLD in screening assays” value at PLD [3] was “did not inhibit PLD”.

`O=P(O)(O)OC(CO)CO` [β-glycerophosphate]: the “Inhibition of PLD in screening assays” value on PLD [3] is reported as “did not inhibit PLD”.

Lyso-phosphatidylserine: the “Ability to compete with B-lyso-PC for utilization by lyso-PLD” value in the assay on lyso-PLD [2] is recorded as “poor competitor”.

lyso-phosphatidylethanol: the “Ability to compete with B-lyso-PC for utilization by lyso-PLD” value with lyso-PLD [2] was “least effective”.

For the molecule pervanadate, the “Effect on PLD in intact endothelial cells” value with PLD [4] was “activate PLD”. The “Inhibition of PLD in intact cells” value in the assay on PLD [5] is on record as “failed to show that vanadate, pervanadate, or iodate inhibits PLD”.

In the case of sodium orthovanadate, in the assay on PLC from Bacillus cereus, the “Inhibition of PLC from Bacillus cereus” value is given as “inhibit a PLC from Bacillus cereus”. For the same molecule, in the assay with PLA2, the “B-lyso-PBt production in kinetic study” value is reported as “continued but at a reduced rate”; the “Effect on PLA2 activity (generation of B-lyso-PC and B-lyso-PBt from B-PC)” value was “did not inhibit”; the “lyso-PC accumulation in kinetic study” value was “did not affect lyso-PC accumulation”. The “Inhibition of PLD in intact cells” value in the assay with PLD [5] was “failed to show that vanadate, pervanadate, or iodate inhibits PLD”. The “Direct inhibition of cabbage PLD” value with cabbage PLD is “directly inhibit cabbage PLD”. Moreover, in the assay on lyso-PLD [1], the “Effect on lyso-PLD activity (B-LPA from B-lyso-PC)” value is recorded as “did not inhibit” and the “Production of LPA in kinetic study” value was “not significantly affected”. The “B-PBt levels in kinetic study” value at PLD [3] (1 mM added after 10 min, PC12K membranes, B-PC substrate) is “B-PBt levels declined”. Besides, the “Effect on PLD activity (production of B-PBt)” value on PLD [3] (1 mM, A7r5 membranes, B-PC substrate) was “profound inhibition of PLD activity”.

As for sodium tungstate, on PLD [3] (concentrations of 1–10 mM), the “Inhibition of PLD in screening assays” value is on record as “did not inhibit PLD”.
